Assay results as given in patent publication US12415786B2, “Substituted 2-heteroarylaminobenzenes and the salts thereof and their use as herbicidal agents” (Bayer Aktiengesellschaft, priority 2019, dated 2025).

Tests used:
Assay type in all cases: in vivo
[1] = tested on: Echinochloa crus-galli; test: Herbicidal post-emergence action (greenhouse pots), ECHCG; details: 1280 g/ha, rated after about 3 weeks, 100% = plants have died, 0% = like untreated control plants
Excerpt: (§1) In the examples and tables below, the following abbreviations are used: • Undesired Plants/Weeds: • ABUTH: Abutilon theophrasti • AGSTE: Agrostis tenuis • AMARE Amaranthus retroflexus • ECHCG: Echinochloa crus-galli • LOLRI: Lolium rigidum • MATIN: Matricaria inodora • POAAN: Poa annua • SETVI: Setaria viridis • STEME: Stellaria media A. Herbicidal Early Post-Emergence Action Seeds of mono- and dicotyledonous weed plants were placed in plastic pots in sandy loam soil (doubly sown with in each case one species of mono- or dicotyledonous weed plants per pot), covered with soil and cultivated in a greenhouse under controlled growth conditions. 2 to 3 weeks after sowing, the test plants were treated at the one-leaf stage. The compounds of the invention, formulated in the form of wettable powders (WP) or as emulsion concentrates (EC), were applied onto the green parts of the plants as aqueous suspension or emulsion with addition of 0.5% additive at a water application rate of 600 liters per hectare (converted). After the test plants had been kept in the greenhouse under optimum growth conditions for about 3 weeks, the activity of the preparations was rated visually in comparison to untreated controls. For example, 100% activity=the plants have died, 0% activity=like untreated control plants. Tables B1-B8 below show the effects of selected compounds of the general formula (I) according to Table 1 above on various harmful plants and an application rate corresponding to 1280 g/ha, which were obtained by the experimental procedure mentioned above.

[2] = tested on: Amaranthus retroflexus; test: Herbicidal pre-emergence action (greenhouse pots), AMARE; details: 1280 g/ha, visual scoring after about 3 weeks vs untreated controls
Excerpt: (§2) In the examples and tables below, the following abbreviations are used: • Undesired Plants/Weeds: • ABUTH: Abutilon theophrasti • AGSTE: Agrostis tenuis • AMARE Amaranthus retroflexus • ECHCG: Echinochloa crus-galli • LOLRI: Lolium rigidum • MATIN: Matricaria inodora • POAAN: Poa annua • SETVI: Setaria viridis • STEME: Stellaria media A. Herbicidal Early Post-Emergence Action Seeds of mono- and dicotyledonous weed plants were placed in plastic pots in sandy loam soil (doubly sown with one species each of mono- or dicotyledonous weed plants per pot) and covered with soil. The compounds of the invention, formulated in the form of wettable powders (WP) or as emulsion concentrates (EC), were then applied onto the surface of the covering soil as aqueous suspension or emulsion with addition of 0.5% additive at a water application rate of 600 liters per hectare (converted). After the treatment, the pots were placed in a greenhouse and kept under good growth conditions for the test plants. After about 3 weeks, the effect of the preparations was scored visually in comparison with untreated controls as percentages. For example, 100% activity=the plants have died, 0% activity=like untreated control plants. Tables C1-C8 below show the effects of selected compounds of the general formula (I) according to Table 1 above on various harmful plants and an application rate corresponding to 1280 g/ha, which were obtained by the experimental procedure mentioned above.

[3] = tested on: Stellaria media; test: Herbicidal pre-emergence action (greenhouse pots), STEME; details: 1280 g/ha, visual scoring after about 3 weeks vs untreated controls
Excerpt: as §2

[4] = tested on: Matricaria inodora; test: Herbicidal pre-emergence action (greenhouse pots), MATIN; details: 1280 g/ha, visual scoring after about 3 weeks vs untreated controls
Excerpt: as §2

[5] = tested on: Amaranthus retroflexus; test: Herbicidal post-emergence action (greenhouse pots), AMARE; details: 1280 g/ha, visual rating about 3 weeks after treatment vs untreated controls
Excerpt: as §1

[6] = tested on: Echinochloa crus-galli; test: Herbicidal pre-emergence action (greenhouse pots), ECHCG; details: 1280 g/ha, visual scoring after about 3 weeks vs untreated controls
Excerpt: as §2

[7] = tested on: Stellaria media; test: Herbicidal post-emergence action (greenhouse pots), STEME; details: 1280 g/ha, visual rating about 3 weeks after treatment vs untreated controls
Excerpt: as §1

[8] = tested on: Setaria viridis; test: Herbicidal post-emergence action (greenhouse pots), SETVI; details: 1280 g/ha, rated after about 3 weeks, 100% = plants have died, 0% = like untreated control plants
Excerpt: as §1

[9] = tested on: Poa annua; test: Herbicidal early post-emergence action (96-well microtiter plates), POAAN; details: 1900 g/ha, scored 9 to 12 days after treatment, 100% = plants have died, 0% = like untreated control plants
Excerpt: (§3) In the examples and tables below, the following abbreviations are used: • Undesired Plants/Weeds: • ABUTH: Abutilon theophrasti • AGSTE: Agrostis tenuis • AMARE Amaranthus retroflexus • ECHCG: Echinochloa crus-galli • LOLRI: Lolium rigidum • MATIN: Matricaria inodora • POAAN: Poa annua • SETVI: Setaria viridis • STEME: Stellaria media A. Herbicidal Early Post-Emergence Action Seeds of monocotyledonous and dicotyledonous weed plants were placed in 96-well microtiter plates in quartz sand and grown in a climatized chamber under controlled growth conditions. 5 to 7 days after sowing, the test plants were treated at the cotyledon stage. The compounds according to the invention, formulated in the form of emulsion concentrates (EC), were applied with a water application rate of the equivalent of 2200 liters per hectare. After the test plants had been left to stand in the climatized chamber for 9 to 12 days under optimum growth conditions, the effect of the preparations was scored visually in comparison to untreated controls. Here, for example, 100% activity=the plants have died, 0% activity=like untreated control plants. Tables A1 to A2 below show the effects of selected compounds of the general formula (I) according to Table 1 above on various harmful plants and an application rate corresponding to 1900 g/ha, which were obtained by the experimental procedure mentioned above.

[10] = tested on: Poa annua; test: Herbicidal pre-emergence action (greenhouse pots), POAAN; details: 1280 g/ha, visual scoring after about 3 weeks vs untreated controls
Excerpt: as §2

[11] = tested on: Agrostis tenuis; test: Herbicidal early post-emergence action (96-well microtiter plates), AGSTE; details: 1900 g/ha, scored 9 to 12 days after treatment, 100% = plants have died, 0% = like untreated control plants
Excerpt: as §3

[12] = tested on: Setaria viridis; test: Herbicidal pre-emergence action (greenhouse pots), SETVI; details: 1280 g/ha, visual scoring after about 3 weeks vs untreated controls
Excerpt: as §2

[13] = tested on: Abutilon theophrasti; test: Herbicidal post-emergence action (greenhouse pots), ABUTH; details: 1280 g/ha, visual rating about 3 weeks after treatment vs untreated controls
Excerpt: as §1

[14] = tested on: Poa annua; test: Herbicidal post-emergence action (greenhouse pots), POAAN; details: 1280 g/ha, visual rating about 3 weeks after treatment vs untreated controls
Excerpt: as §1

Structure (SMILES) | ECHCG (herbicidal activity, rated visually in comparison to untreated controls) [1] | herbicidal activity AMARE [2] | herbicidal activity STEME [3] | herbicidal activity MATIN [4] | herbicidal activity AMARE [5] | herbicidal activity ECHCG [6] | herbicidal activity STEME [7] | SETVI (herbicidal activity, rated visually in comparison to untreated controls) [8] | POAAN (herbicidal activity, scored visually in comparison to untreated controls) [9] | herbicidal activity POAAN [10] | AGSTE (herbicidal activity, scored visually in comparison to untreated controls) [11] | herbicidal activity SETVI [12] | herbicidal activity ABUTH [13] | herbicidal activity POAAN [14]
N#Cc1cccc(Nc2ncc(F)cn2)c1Oc1ccc(Cl)cc1F [Example 1-275] | 90% | 100% | 100% | 90% | 100% | 90% | 100% | 90% | 100% | 100% | 80% | 100% | 90% | –
N#Cc1cccc(Nc2ncccn2)c1Oc1ccc(C(F)(F)F)cc1 [Example 1-260] | – | 100% | 100% | 90% | 100% | 90% | 90% | – | 100% | 90% | 100% | 100% | – | –
Cc1cccc(Nc2ncc(Cl)cn2)c1Oc1ccc(F)cc1 [Example 1-239] | – | – | – | 100% | 100% | – | 100% | – | 100% | 100% | 80% | – | – | 100%
CC(=O)N(C)c1cccc(Nc2ncc(Cl)cn2)c1Oc1ccc(F)cc1 [Example 1-369] | – | 100% | 100% | – | 100% | – | – | – | 80% | – | 80% | 100% | – | 100%
N#Cc1cccc(Nc2ncc(F)cn2)c1Oc1cccc(F)c1 [Example 1-266] | 100% | 100% | 100% | 100% | 100% | 90% | 100% | – | 100% | 100% | 80% | 100% | 100% | –
Fc1ccc(Oc2c(I)cccc2Nc2ncc(Cl)cn2)cc1 [Example 1-372] | – | 100% | – | – | – | – | 90% | – | 100% | – | 100% | 100% | – | 100%
N#Cc1cccc(Nc2ncc(F)cn2)c1Oc1ccc(F)cc1F [Example 1-270] | 90% | 100% | 100% | 100% | 100% | 100% | 100% | 90% | 80% | 100% | 80% | 100% | 90% | –
